# Patent US12649751B2 (Arcus Biosciences, Inc., priority 2022, dated 2026)
# How the values were obtained:
# HPK1 = HPK1 (Homo sapiens, UniProt Q92918); experiment: HPK1 Biochemical Assay (ADP-Glo luminescence; low ATP 10 μM or high ATP 200 μM); conditions: 2 nM HPK1, 10 μM ATP; read-out: Biochemical Potency (low ATP)
# [1] = test system: p-SLP-76 (Ser376) in Jurkat cells; experiment: pSLP76 Cellular Assay (AlphaLISA SureFire Ultra p-SLP-76 (Ser376), anti-CD3 activated Jurkat cells); format: cell-based; conditions: Homo sapiens; Jurkat cells, anti-CD3 stimulation, pSLP76; read-out: Cellular Potency
# Method: pSLP76 cellular assay was performed using Jurkat cells and the AlphaLISA SureFire Ultra p-SLP-76 (Ser376) Assay Kit (PerkinElmer). Dose-response assays were performed in Greiner® Low Volume 384-well assay plates containing 200 nL of 22 serial 2-fold compound dilutions using Bravo and Echo. Jurkat cells were grown in RPMI-1640 supplemented with 10% FBS and PSG. The day prior to the assay, the cells were collected, and serum starved overnight in Opti-MEM. The day of the assay, the cells were collected and resuspended in HBSS. 100,000 cells/well were added to the compound plates and after a short spin, the plates were incubated at 37° C. for 1 h. The cells were activated by adding 10 μL of 0.025 mg/ml anti-CD3. Plates were then incubated at 37° C. for 45 min. Stimulation was terminated by adding […], followed by a brief centrifugation and 60 min of shaking at 300 rpm. Cell lysates (10 μL) were transferred to 384-well White Opti-plates and the samples were processed according to the manufacturer's directions. The fluorescence signal from pSLP76 was measured at 570 nm using Envision plate reader. IC50 values were determined by fitting the data to a standard 4-parameter logistic equation. The results are summarized in the Cellular Potency columns in Tables 4 and 5 below (Cellular Potency).
# HPK1, sequence (Q92918 whole entry, species assumed): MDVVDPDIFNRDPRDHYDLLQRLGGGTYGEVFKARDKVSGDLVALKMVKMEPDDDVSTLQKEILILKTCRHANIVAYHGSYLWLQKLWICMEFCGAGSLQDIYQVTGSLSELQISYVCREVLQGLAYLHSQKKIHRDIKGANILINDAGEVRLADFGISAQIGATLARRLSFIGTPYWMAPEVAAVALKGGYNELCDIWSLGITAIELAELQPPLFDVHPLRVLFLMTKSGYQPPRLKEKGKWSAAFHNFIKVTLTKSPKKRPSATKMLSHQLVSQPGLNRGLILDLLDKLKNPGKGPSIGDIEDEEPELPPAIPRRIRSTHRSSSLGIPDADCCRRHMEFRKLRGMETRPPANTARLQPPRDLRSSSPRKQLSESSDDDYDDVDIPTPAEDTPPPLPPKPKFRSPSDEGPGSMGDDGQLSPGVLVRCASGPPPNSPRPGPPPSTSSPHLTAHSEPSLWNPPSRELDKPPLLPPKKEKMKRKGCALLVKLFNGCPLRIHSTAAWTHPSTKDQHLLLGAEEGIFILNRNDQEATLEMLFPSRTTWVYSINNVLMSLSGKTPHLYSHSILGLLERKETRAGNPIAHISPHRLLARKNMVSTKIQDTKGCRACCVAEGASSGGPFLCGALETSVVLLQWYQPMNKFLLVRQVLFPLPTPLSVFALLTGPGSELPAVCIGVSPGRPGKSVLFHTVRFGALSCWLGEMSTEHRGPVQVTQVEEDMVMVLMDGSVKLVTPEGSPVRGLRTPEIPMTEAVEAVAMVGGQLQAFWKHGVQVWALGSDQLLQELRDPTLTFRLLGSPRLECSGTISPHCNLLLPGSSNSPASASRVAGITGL
Compound,IC50 (HPK1) [nM],IC50 [1] [nM]
"CN(C)Cc1nc(Nc2cc3nc(-c4ccncc4F)sc3cn2)ccc1N1CCOCC1 [Example 4, 6-[(Dimethylamino)methyl]-N-[2-(3-fluoropyridin-4-yl)-[1,3]thiazolo[5,4-c]pyridin-6-yl]-5-(morpholin-4-yl)pyridin-2-amine]",< 100,100 to 1000
"CN(C)Cc1nc(Nc2cc3nc(-c4ccncc4)sc3cn2)ccc1N1CCOCC1 [Example 5, 6-[(Dimethylamino)methyl]-5-(morpholin-4-yl)-N-[2-(pyridin-4-yl)-[1,3]thiazolo[5,4-c]pyridin-6-yl]pyridin-2-amine]",< 100,< 100
"CN(C)Cc1nc(Nc2cc3nc(-c4cccnc4)sc3cn2)ccc1N1CCOCC1 [Example 6, 6-[(Dimethylamino)methyl]-5-(morpholin-4-yl)-N-[2-(pyridin-3-yl)-[1,3]thiazolo[5,4-c]pyridin-6-yl]pyridin-2-amine]",< 100,100 to 1000
"c1ccc(-c2nc3cc(Nc4ccc(N5CCOCC5)c(CN5CCCC5)n4)ncc3s2)nc1 [Example 7, 5-(Morpholin-4-yl)-N-[2-(pyridin-2-yl)-[1,3]thiazolo[5,4-c]pyridin-6-yl]-6-[(pyrrolidin-1-yl)methyl]pyridin-2-amine]",< 100,1000 to 5000
"Cc1cccnc1-c1nc2cc(Nc3ccc(N4CCC(F)(F)C4)c(CN4CCCC4)n3)ncc2s1 [Example 9, 5-(3,3-Difluoropyrrolidin-1-yl)-N-[2-(3-methylpyridin-2-yl)-[1,3]thiazolo[5,4-c]pyridin-6-yl]-6-[(pyrrolidin-1-yl)methyl]pyridin-2-amine]",< 100,100 to 1000
"CN(C)Cc1nc(Nc2cc3nc(-c4c(F)cccc4F)sc3cn2)ccc1N1CCC(O)CC1 [Example 12, 1-(6-{[2-(2,6-Difluorophenyl)-[1,3]thiazolo[5,4-c]pyridin-6-yl]amino}-2-[(dimethylamino)methyl]pyridin-3-yl)piperidin-4-ol]",< 100,1000 to 5000
"Cc1cccc(C)c1-c1nc2cc(Nc3ccc(N4CCOCC4)c(CN(C)C)n3)ncc2s1 [Example 13, 6-[(Dimethylamino)methyl]-N-[2-(2,6-dimethylphenyl)-[1,3]thiazolo[5,4-c]pyridin-6-yl]-5-(morpholin-4-yl)pyridin-2-amine]",< 100,100 to 1000
"Cc1cccc(F)c1-c1nc2cc(Nc3ccc(N4CCOCC4)c(CN(C)C)n3)ncc2s1 [Example 14, 6-[(Dimethylamino)methyl]-N-[2-(2-fluoro-6-methylphenyl)-[1,3]thiazolo[5,4-c]pyridin-6-yl]-5-(morpholin-4-yl)pyridin-2-amine]",< 100,100 to 1000
"CN(C)Cc1nc(Nc2cc3nc(-c4c(F)cccc4C(F)(F)F)sc3cn2)ccc1N1CCOCC1 [Example 15, 6-[(Dimethylamino)methyl]-N-{2-[2-fluoro-6-(trifluoromethyl)phenyl]-[1,3]thiazolo[5,4-c]pyridin-6-yl}-5-(morpholin-4-yl)pyridin-2-amine]",< 100,100 to 1000
"Cc1cccc(F)c1-c1nc2cc(Nc3ccc(N4CCOCC4)c(CN4CCCC4)n3)ncc2s1 [Example 16, N-[2-(2-Fluoro-6-methylphenyl)-[1,3]thiazolo[5,4-c]pyridin-6-yl]-5-(morpholin-4-yl)-6-[(pyrrolidin-1-yl)methyl]pyridin-2-amine]",< 100,1000 to 5000
"Fc1cccc(F)c1-c1nc2cc(Nc3ccc(N4CCOCC4)c(CN4CCCC4)n3)ncc2s1 [Example 17, N-[2-(2,6-Difluorophenyl)-[1,3]thiazolo[5,4-c]pyridin-6-yl]-5-(morpholin-4-yl)-6-[(pyrrolidin-1-yl)methyl]pyridin-2-amine]",< 100,1000 to 5000
"Cc1cccc(F)c1-c1nc2cc(Nc3ccc(N4CCC(O)CC4)c(CN(C)C)n3)ncc2s1 [Example 18, 1-{2-[(Dimethylamino)methyl]-6-{[2-(2-fluoro-6-methylphenyl)-[1,3]thiazolo[5,4-c]pyridin-6-yl]amino}pyridin-3-yl}piperidin-4-ol]",< 100,100 to 1000
"CN(C)Cc1nc(Nc2cccc(F)c2-c2nc3cc(Cl)ncc3s2)ccc1N1CCOCC1 [Example 19, N-(2-{6-Chloro-[1,3]thiazolo[5,4-c]pyridin-2-yl}-3-fluorophenyl)-6-[(dimethylamino)methyl]-5-(morpholin-4-yl)pyridin-2-amine]",> 5000,> 5000
"CN(C)Cc1nc(Nc2cc3nc(-c4c(F)cccc4Cl)sc3cn2)ccc1N1CCOCC1 [Example 20, N-[2-(2-Chloro-6-fluorophenyl)-[1,3]thiazolo[5,4-c]pyridin-6-yl]-6-[(dimethylamino)methyl]-5-(morpholin-4-yl)pyridin-2-amine]",< 100,100 to 1000
"CC(C)n1cc(-c2nc3cc(Nc4ccc(N5CCOCC5)c(CN5CCCC5)n4)ncc3s2)cn1 [Example 23, 5-(Morpholin-4-yl)-N-{2-[1-(propan-2-yl)-1H-pyrazol-4-yl]-[1,3]thiazolo[5,4-c]pyridin-6-yl}-6-[(pyrrolidin-1-yl)methyl]pyridin-2-amine]",< 100,> 5000
"Cn1cc(-c2nc3cc(Nc4ccc(N5CCOCC5)c(CN5CCCC5)n4)ncc3s2)cn1 [Example 24, N-[2-(1-Methyl-1H-pyrazol-4-yl)-[1,3]thiazolo[5,4-c]pyridin-6-yl]-5-(morpholin-4-yl)-6-[(pyrrolidin-1-yl)methyl]pyridin-2-amine]",< 100,100 to 1000
"COc1cccc(F)c1-c1nc2cc(Nc3ccc(N4CCOCC4)c(CN(C)C)n3)ncc2s1 [Example 26, 6-[(Dimethylamino)methyl]-N-[2-(2-fluoro-6-methoxyphenyl)-[1,3]thiazolo[5,4-c]pyridin-6-yl]-5-(morpholin-4-yl)pyridin-2-amine]",< 100,100 to 1000
"Cc1c(-c2nc3cc(Nc4ccc(N5CCOCC5)c(CN5CCCC5)n4)ncc3s2)cnc2c1NCCO2 [Example 27, N-(2-{8-Methyl-1H,2H,3H-pyrido[2,3-b][1,4]oxazin-7-yl}-[1,3]thiazolo[5,4-c]pyridin-6-yl)-5-(morpholin-4-yl)-6-[(pyrrolidin-1-yl)methyl]pyridin-2-amine]",< 100,100 to 1000
"Cc1c(-c2nc3cc(Nc4ccc(N5CCOCC5)c(CN(C)C)n4)ncc3s2)cnc2c1NCCO2 [Example 28, 6-[(Dimethylamino)methyl]-N-(2-{8-methyl-1H,2H,3H-pyrido[2,3-b][1,4]oxazin-7-yl}-[1,3]thiazolo[5,4-c]pyridin-6-yl)-5-(morpholin-4-yl)pyridin-2-amine]",< 100,100 to 1000
"Cc1c(N)cncc1-c1nc2cc(Nc3ccc(N4CCOCC4)c(CN(C)C)n3)ncc2s1 [Example 29, N-[2-(5-Amino-4-methylpyridin-3-yl)-[1,3]thiazolo[5,4-c]pyridin-6-yl]-6-[(dimethylamino)methyl]-5-(morpholin-4-yl)pyridin-2-amine]",< 100,100 to 1000
"Cc1cccc(F)c1-c1nc2cc(Nc3ccc(N4CCOCC4)c(CN4CCCS4(=O)=O)n3)ncc2s1 [Example 30, 2-[(6-{[2-(2-Fluoro-6-methylphenyl)-[1,3]thiazolo[5,4-c]pyridin-6-yl]amino}-3-(morpholin-4-yl)pyridin-2-yl)methyl]-1λ^6,2-thiazolidine-1,1-dione]",< 100,100 to 1000
"CN(Cc1nc(Nc2cc3nc(-c4c(F)cccc4F)sc3cn2)ccc1N1CCOCC1)S(C)(=O)=O [Example 31, N-[(6-{[2-(2,6-Difluorophenyl)-[1,3]thiazolo[5,4-c]pyridin-6-yl]amino}-3-(morpholin-4-yl)pyridin-2-yl)methyl]-N-methylmethanesulfonamide]",1000 to 5000,> 5000
"Cc1ccc(Nc2cc3nc(-c4cnn(CCC(N)=O)c4)sc3cn2)nc1CN1CCCC1 [Example 37, 3-{4-[6-({5-Methyl-6-[(pyrrolidin-1-yl)methyl]pyridin-2-yl}amino)-[1,3]thiazolo[5,4-c]pyridin-2-yl]-1H-pyrazol-1-yl}propanamide]",< 100,100 to 1000
"Cc1ccc(Nc2cc3nc(-c4ncccc4C)sc3cn2)nc1CN1CCCC1 [Example 41, 5-Methyl-N-[2-(3-methylpyridin-2-yl)-[1,3]thiazolo[5,4-c]pyridin-6-yl]-6-[(pyrrolidin-1-yl)methyl]pyridin-2-amine]",< 100,1000 to 5000
"Cc1ccc(Nc2cc3nc(-c4ncccc4C)sc3cn2)nc1CN1CC[C@H](F)C1 [Example 43, 6-{[(3S)-3-Fluoropyrrolidin-1-yl]methyl}-5-methyl-N-[2-(3-methylpyridin-2-yl)-[1,3]thiazolo[5,4-c]pyridin-6-yl]pyridin-2-amine]",< 100,> 5000
"Cc1ccc(Nc2cc3nc(-c4ncccc4C)sc3cn2)nc1CN1CCC[C@H]1C [Example 44, 5-Methyl-N-[2-(3-methylpyridin-2-yl)-[1,3]thiazolo[5,4-c]pyridin-6-yl]-6-{[(2R)-2-methylpyrrolidin-1-yl]methyl}pyridin-2-amine]",< 100,> 5000
